# In publication PMC6530361, “Anti-tumor Efficacy Assessment of the Sigma Receptor Pan Modulator RC-106. A Promising Therapeutic Tool for Pancreatic Cancer” (Frontiers in Pharmacology, 2019):
# Tests used:
# [1] = In vivo pancreas distribution study; parameters: species or system male CD-1 mice; conditions: male, CD-1, mouse, ip, mice
# Method: (§1) The experiments were performed in agreement with the Italian Law D. L.vo 4 marzo 2014, n. 26. The treatments involved male CD-1 mice and a unique number on the tail identified each animal. Mice were housed, in groups of four, in cages suitable for the species. After 5 days of adaptation to the local housing conditions, animals were housed in a single, exclusive, air-conditioned room to provide a minimum of 15 air changes/hour. The environmental controls were set to maintain the temperature at around 22°C and the relative humidity within the range 50 to 60%, along with an approximate 12:12 h light/dark cycle automatically controlled. Food (Mucedola Standard GLP diet) and water were available ad libitum throughout the entire duration of the study. All animals were weighted on the day of the treatment.
# Mice (n = 4/time point) received an intraperitoneal administration (i.p., 10 mL/kg) of RC-106 at 10 mg/kg. CD-1 male mice were exsanguinated under anesthesia (isoflurane) from the aorta at the following time points: 5, 10, 30, 120, 240, and 480 min. Blood samples were collected in tubes containing heparin, gently mixed and immediately placed on ice. Afterward, they have been centrifuged (3500 × g, at 4°C for 15 min), the obtained plasma has been collected and transferred to individually labeled tubes and frozen at -20°C until the analysis. Plasma samples were used for quantification of RC-106. […] The organ was homogenized using a Velp OV5 homogenizer with 20 mM ammonium formiate buffer in a ratio of 1 g of tissue per 10 mL of buffer.
# (§2) 20 mg/mL stock solution (s.s.) of RC-106 was prepared by dissolving the compound in DMSO. 1 mL of 5% Tween80 in H2O was slowly added to 500 μL of s.s. under stirring. Then 8.5 mL of water was gently spiked to obtain the 1 mg/mL formulation of RC-106.
# (§3) Standard curves of RC-106 were prepared for plasma and pancreas homogenate, and analyzed together with each QC and unknown sample set. For the PK and pancreas distribution sample analysis, plasma and pancreas homogenate samples (50 μL) were spiked in 200 μL of IS in MeOH (0.1 μg/mL of RC-33), followed by 2 min vortex mixing. Samples were centrifuged and transferred in UFLC vials. 5 μL aliquots of the collected samples were injected into the LC-MS/MS system. Standard calibration graphs were constructed by linear least-squares regression analysis on the analyte/IS area ratio plotted against sample concentration. Calibration ranges were from 5 to 1000 ng/mL for plasma, and from 5 to 500 ng/mL for pancreas homogenate. Accuracy values were determined in triplicates at three different concentrations (high, medium, and low) in the range of linearity of the calibration curves.
# (§4) Analyses were acquired on a Shimadzu AC20 UFLC system interfaced with an API 3200 Triple Quadrupole detector (AB Sciex). Data acquisition and control were performed using the Analyst^TM 6.1 (Applied Biosystems) Software. A Phenomenex Gemini-NX C18 (50 mm × 2 mm, 5 μm) column was selected to carry out the analytical evaluations. A gradient method was set up (Supplementary Table S1) and it provided the employment of water and methanol, both containing 0.1% of formic acid, at a flow rate of 0.3 mL/min. The LC eluate was directly introduced into the MS interface using the ESI in the positive ion mode. The MRM transitions m/z 181.2 were tracked (Supplementary Table S2).
# Panc-1 spheroids = experiment: Analysis of morphological parameters of 3D tumor spheroids; assay type: cell-based; conditions: 50 μM, 48 h
# Method: Spheroids were obtained as previously described ([Zanoni et al., 2016]). Briefly, a rotatory cell culture system RCCS (Synthecon Inc., Houston, TX, United States) was used. The rotary systems were placed inside a humidified 37°C, 5% CO2 incubator and all procedures were performed in sterile conditions. Single cell suspensions of about 1 × 10^6 cells/ml of Panc-1 were placed in the 50 mL rotating chamber at an initial speed of 12 rpm. Speed was increased as cells formed aggregates to avoid sedimentation. The culture medium was changed every 4 days and tumor spheroids with an equivalent diameter ranging from about 500–1300 μm were obtained in around 15 days. After formation, spheroids were transferred into a 96-well low-attachment culture plates (Corning Inc., Corning, NY, United States; one spheroid/well), containing 100 μL of fresh culture medium per well.
# The analysis of morphological parameters were performed as previously described ([Piccinini et al., 2017]). Briefly, an inverted Olympus IX51 microscope (Olympus Corporation, Tokyo, Japan), equipped with a Nikon Digital Sight DS-Vi1 camera (CCD vision sensor, square pixels of 4.4 μm side length, 1600 × 1200 pixel resolution, 8-bit gray level; Nikon Instruments, Spa. Florence, Italy) was used to take images and for morphological analyses. […]
# [2] = In vivo pharmacokinetic study, plasma; parameters: species or system male CD-1 mice; conditions: mice
# Method: as §1
# Mice (n = 4/time point) received an intraperitoneal administration (i.p., 10 mL/kg) of RC-106 at 10 mg/kg. CD-1 male mice were exsanguinated under anesthesia (isoflurane) from the aorta at the following time points: 5, 10, 30, 120, 240, and 480 min. Blood samples were collected in tubes containing heparin, gently mixed and immediately placed on ice. Afterward, they have been centrifuged (3500 × g, at 4°C for 15 min), the obtained plasma has been collected and transferred to individually labeled tubes and frozen at -20°C until the analysis. Plasma samples were used for quantification of RC-106. Pancreas was taken by surgical resection after 20 min from the last treatment, washed in saline, dried on paper, weighted and frozen at -20°C. The organ was homogenized using a Velp OV5 homogenizer with 20 mM ammonium formiate buffer in a ratio of 1 g of tissue per 10 mL of buffer.
# as §2, §3, §4
# [3] = male, CD-1, mouse, plasma, ip, 10 mg/kg
smiles,measurement,setting,value
"C/C(=C\CN1CCC(Cc2ccccc2)CC1)c1ccc2ccccc2c1 [RC-106, (E)-4-benzyl-1-(3-(naphthalen-2-yl)but-2-en-1-yl)piperidine]",AUC(0-t),"[1]; pancreas, 10 mg/kg, i.p., 10 mg/kg, read-out: AUC0-t, pancreas (converted)",28800 ng·h/mL
same,concentration at 5 min,"[1]; pancreas, 5 min after i.p. 10 mg/kg, read-out: pancreas C",25300 ng/g
same,concentration at 10 min,"[1]; pancreas, 10 min after i.p. 10 mg/kg, read-out: pancreas C",13900 ng/g
same,concentration at 30 min,"[1]; pancreas, 30 min after i.p. 10 mg/kg, read-out: pancreas C",11100 ng/g
same,concentration at 120 min,"[1]; pancreas, 120 min after i.p. 10 mg/kg, read-out: pancreas C",2710 ng/g
same,concentration at 240 min,"[1]; pancreas, 240 min after i.p. 10 mg/kg, read-out: pancreas C",2310 ng/g
same,concentration at 480 min,"[1]; pancreas, 480 min after i.p. 10 mg/kg, read-out: pancreas C",995 ng/g
same,Tmax,"[1]; pancreas, 10 mg/kg",5 min
same,Cmax,"[1]; pancreas, i.p., 10 mg/kg, read-out: Cmax, pancreas",25300 ± 5600 ng/g
same,Cmax,"[1]; pancreas, i.p., 10 mg/kg, read-out: Cmax, pancreas (molar)",~70 µM
same,half-life,"[1]; pancreas, i.p., 10 mg/kg, read-out: t1/2, pancreas",4 h
same,Kp,"[1]; pancreas/plasma, 10 mg/kg, i.p., 10 mg/kg, read-out: AUC0-t pancreas/AUC0-t plasma",~25
same,3D morphological parameters of spheroids,Panc-1 spheroids,complete disaggregation of spheroid organization and cytoarchitecture
same,Cmax,[2]; [3],973 ng/mL
same,AUC(0-t),"[2]; male, CD-1, mouse, plasma, ip, 10 mg/kg, i.p., 10 mg/kg, read-out: AUC0-t, plasma (converted)",1130 ng·h/mL
same,concentration at 5 min,"[2]; male, CD-1, mouse, plasma, ip, 5 min after i.p. 10 mg/kg, read-out: plasma C",973 ng/mL
same,concentration at 10 min,"[2]; male, CD-1, mouse, plasma, ip, 10 min after i.p. 10 mg/kg, read-out: plasma C",884 ng/mL
same,concentration at 30 min,"[2]; male, CD-1, mouse, plasma, ip, 30 min after i.p. 10 mg/kg, read-out: plasma C",361 ng/mL
same,concentration at 120 min,"[2]; male, CD-1, mouse, plasma, ip, 120 min after i.p. 10 mg/kg, read-out: plasma C",134 ng/mL
same,concentration at 240 min,"[2]; male, CD-1, mouse, plasma, ip, 240 min after i.p. 10 mg/kg, read-out: plasma C",76 ng/mL
same,concentration at 480 min,"[2]; male, CD-1, mouse, plasma, ip, 480 min after i.p. 10 mg/kg, read-out: plasma C",38 ng/mL
same,Tmax,[2]; [3],5 min
same,half-life,"[2]; male, CD-1, mouse, plasma, ip, i.p., 10 mg/kg, read-out: t1/2, plasma",3.37 h
same,"AUC0-t, plasma","[2]; i.p., 10 mg/kg",67987 ng·min/mL
same,"Cmax, plasma","[2]; i.p., 10 mg/kg",973 ± 167 ng/mL
same,melting point,,221 to 222 °C
